Like-named read-outs stand apart in the source and are kept apart here.
Tests used:
Assay in all cases: PTP IC50 assay, fluorescent substrate DiFMUP
Format in all cases: biochemical
PTP SHP2 = target: T1, PTP SHP2 (Homo sapiens, UniProt Q06124)
T1 construct: The catalytic domain was amplified using the following oligonucleotides; made in house; host or cells: Sf-9 insect cells (pFastBac-G2T)
T1 sequence (Q06124 247-517 limits assumed): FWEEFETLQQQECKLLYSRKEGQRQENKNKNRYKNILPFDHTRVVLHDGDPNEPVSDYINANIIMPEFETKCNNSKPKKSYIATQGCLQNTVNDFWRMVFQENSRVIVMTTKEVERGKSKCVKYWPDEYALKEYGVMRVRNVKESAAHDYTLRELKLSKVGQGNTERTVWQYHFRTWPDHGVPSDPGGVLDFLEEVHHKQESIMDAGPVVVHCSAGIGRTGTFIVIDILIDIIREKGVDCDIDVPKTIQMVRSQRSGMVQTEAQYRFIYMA
Text: SHP-2 cDNA was used as described earlier (Vogel W., et al.,1993, Science, 259:1611-4). The catalytic domain was amplified using the following oligonucleotides 5′oligo: 5′-[…]-3′ (SEQ ID NO: 2) 3′oligo: 5′-[…]-3′ (SEQ ID NO: 3) and subsequently subcloned into BamH1-Xba-1 sites. It was then ligated into pfas Bac-G2T BamH1-Xba-1 sites.
(§1) The following in vitro assay procedure is preferred to determine the level of activity and effect of the different compounds of the present invention on one or more of the PTPs. Similar assays can be designed along the same lines for any PTP using techniques well known in the art.
(§2) The catalytic assays described herein are performed in a 96-well format. The general procedure begins with the determination of PTP optimal pH using a three-component buffer system that minimizes ionic strength variations across a wide range of buffer pH. Next, the Michaelis-Menten constant, or Km, is determined for the substrate 6,8-difluoro-4-methylumbelliferyl phosphate (DiFMUP). This Km value is subsequently used as the substrate reaction concentration for compound screening. Finally, the test PTP is exposed to varying concentrations of compound for fifteen minutes and allowed to react with substrate for ten minutes. The results are plotted as percent inhibition versus compound concentration and the IC50 interpolated from the plot.
(§3) All assays were performed using DiFMUP as substrate. The optimum pH and substrate Km was determined for each PTP used.
(§4) PTPase activity was assayed at 25° C. in a 100-μl reaction mixture containing an appropriate concentration of DiFMUP as substrate. The reaction was initiated by addition of the purified PTP and quenched after 10 min by addition of 1% H2O2/100 mM NaCl. The non-enzymatic hydrolysis of the substrate was corrected by measuring the control without the addition of the enzyme. The amount of DiFMU produced was determined from the increase in the fluorescence (360 nm excitation/460 nm emission) over that of background in the absence of PTPase. To determine the kinetic parameter, Km, the initial velocities were measured at various substrate concentrations and the data were fitted to the Michaelis equation where velocity=(Vmax*[S])/(Km+[S]), and [S]=substrate reaction concentration.
(§5) The effect of the compounds on PTP was evaluated at 25° C. using DiFMUP as substrate. PTP was pre-incubated for fifteen minutes with various concentrations of compound. Substrate was then added at a fixed concentration (usually equal to the Km previously calculated). After 10 minutes, the reaction was quenched. The hydrolysis of DiFMUP was followed as described above. The percent inhibition was calculated as follows: Percent Inhibition=[(control signal−compound signal)/control signal]×100%. The IC50 was then determined by interpolation of a percent inhibition versus compound concentration plot.
(§6) Plasmids designed for bacterial GST-PTP fusion protein expression were derived by insertion of PCR-generated human PTP fragments into pGEX vectors (Pharmacia Biotech). Several of these constructs were then used to subclone phosphatases into pFastBac-1 for expression in Sf-9 insect cells. Oligonucleotides used for the initial amplification of PTP genes are as described above. The cDNAs were prepared using the Gilbo BRL superscript preamplification system on RNAs purchased from Clontech.

PTP EPSILON = target: T2, PTP EPSILON (Homo sapiens, UniProt P23469)
T2 construct: made in house; host or cells: Sf-9 insect cells (pFastBac-G2T); a pGEX 6P-1 construct also existed
Text: The PTPepsilon cDNA was amplified from human placenta single-strand cDNA (Clontech RNA) using the following oligonucleotides: 5′oligo: 5′-[…]-3′ (SEQ ID NO: 6) 3′oligo: 5′-[…]-3′ (SEQ ID NO: 7) After cloning this PCR product into the Bam HI/Xho I sites of pGEX 6P-1, this phosphatase was subcloned using the same restriction sites in pFastBac-G2T.
as §1, §2, §3, §4, §5, §6

PTP 1B = target: T3, PTP 1B (Homo sapiens, UniProt P18031)
T3 construct: made in house; host or cells: Sf-9 insect cells (pFastBac-G2T)
T3 sequence (P18031 1-435): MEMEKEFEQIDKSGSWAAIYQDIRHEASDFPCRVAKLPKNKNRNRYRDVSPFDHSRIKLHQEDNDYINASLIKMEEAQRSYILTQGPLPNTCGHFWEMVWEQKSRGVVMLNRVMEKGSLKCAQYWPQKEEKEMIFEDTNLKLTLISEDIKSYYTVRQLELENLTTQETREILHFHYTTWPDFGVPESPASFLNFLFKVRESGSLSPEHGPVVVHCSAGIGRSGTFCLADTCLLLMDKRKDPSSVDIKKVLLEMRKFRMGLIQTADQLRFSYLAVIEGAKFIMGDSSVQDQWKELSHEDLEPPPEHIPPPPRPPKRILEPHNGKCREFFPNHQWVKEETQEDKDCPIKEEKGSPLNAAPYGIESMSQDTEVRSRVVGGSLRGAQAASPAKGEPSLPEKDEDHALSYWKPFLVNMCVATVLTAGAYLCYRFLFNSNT
Text: The PTP1b cDNA was amplified from human placenta single strand cDNA (Clontech RNA) using the following oligonucleotides: 5′oligo: 5′-[…] (SEQ ID NO: 4) 3′oligo: 5′-[…] (SEQ ID NO: 5) It was subsequently ligated into pFasBac G2TBamH1Xba-1 sites.
as §1, §2, §3, §4, §5, §6

[1] = DiFMUP as substrate, 25° C., read-out: PTP IC50 SHP2
[2] = DiFMUP as substrate, 25° C., read-out: PTP IC50 Epilson
[3] = DiFMUP as substrate, 25° C., read-out: PTP IC50 1B

T2 sequence (P23469 80-393 limits assumed): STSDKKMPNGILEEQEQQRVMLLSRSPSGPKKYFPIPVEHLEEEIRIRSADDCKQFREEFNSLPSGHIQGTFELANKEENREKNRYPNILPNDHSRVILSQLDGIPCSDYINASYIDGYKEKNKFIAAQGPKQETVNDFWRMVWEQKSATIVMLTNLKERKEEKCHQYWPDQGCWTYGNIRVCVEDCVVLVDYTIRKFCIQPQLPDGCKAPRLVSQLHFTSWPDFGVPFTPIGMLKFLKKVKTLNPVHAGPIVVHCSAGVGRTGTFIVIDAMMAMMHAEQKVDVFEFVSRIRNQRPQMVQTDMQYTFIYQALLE

Row | SMILES | IC50 (PTP SHP2; [1]) [µM] | IC50 (PTP EPSILON; [2]) [µM] | IC50 (PTP 1B; [3]) [µM] | IC50 (PTP SHP2) [µM] | IC50 (PTP EPSILON) [µM] | IC50 (PTP 1B) [µM]
1 | CCCCNC(=O)C(c1ccc(S(=O)(=O)C(F)(F)F)cc1)N(CCO)C(=O)c1ccccc1 (stereo not drawn) [Example 45, N-[Butylcarbamoyl-(4-trifluoromethanesulfonyl-phenyl)-methyl]-N-(2-hydroxy-ethyl)-benzamide] | > 100 | > 100 | > 100 |  |  | 
2 | CCOC(=O)CNC(=O)C(c1ccc(S(=O)(=O)C(F)(F)F)cc1)N(C(C)=O)C1CC1 (stereo not drawn) [Example 46, [2-(Acetyl-cyclopropyl-amino)-2-(4-trifluoromethanesulfonyl-phenyl)-acetylamino]-acetic acid ethyl ester] | > 100 | > 100 | > 100 |  |  | 
3 | CCCN(C(C)=O)C(C(=O)NCC(=O)OCC)c1ccc(S(=O)(=O)C(F)(F)F)cc1 (stereo not drawn) [Example 50, [2-(Acetyl-propyl-amino)-2-(4-trifluoromethanesulfonyl-phenyl)-acetylamino]-acetic acid ethyl ester] | > 100 | > 100 | > 100 |  |  | 
4 | CCOC(=O)CNC(=O)C(c1ccc(S(=O)(=O)C(F)(F)F)cc1)N(C(C)=O)C1CCCCC1 (stereo not drawn) [Example 51, [2-(Acetyl-cyclohexyl-amino)-2-(4-trifluoromethanesulfonyl-phenyl)-acetylamino]-acetic acid ethyl ester] | > 100 | > 100 | > 100 |  |  | 
5 | O=[N+]([O-])c1ccc(NCC(COc2ccc(S(=O)(=O)C(F)(F)F)cc2[N+](=O)[O-])Oc2ccc(S(=O)(=O)C(F)(F)F)cc2[N+](=O)[O-])cc1 (stereo not drawn) [Example 59, [2,3-Bis-(2-nitro-4-trifluoromethanesulfonyl-phenoxy)-propyl]-(4-nitro-phenyl)-amine] |  |  |  | 0.2 | 38.1 | 0.9
6 | O=[N+]([O-])c1cc(S(=O)(=O)C(F)(F)F)ccc1Oc1ccc(S(=O)(=O)c2ccc(Oc3ccc(S(=O)(=O)C(F)(F)F)cc3[N+](=O)[O-])cc2)cc1 [Example 63, Bis-{[4-(2-nitro-4-trifluoromethanesulfonyl)-phenoxy]-phenyl}sulfone] |  |  |  | 0.4 | 2.4 | 0.7
7 | O=C(O)c1cc2cc(NS(=O)(=O)C(F)(F)F)ccc2[nH]1 [Example 77, 5-Trifluoromethanesulfonylamino-1H-indole-2-carboxylic acid] | > 100 | > 20 | > 100 |  |  | 

More lines, main results first:

Row | IC50 (PTP SHP2; [1]) [µM] | IC50 (PTP EPSILON; [2]) [µM] | IC50 (PTP 1B; [3]) [µM] | SMILES | IC50 (PTP SHP2) [µM] | IC50 (PTP EPSILON) [µM] | IC50 (PTP 1B) [µM]
8 | 1.2 | 1.5 | 3.7 | CCOC(=O)c1cccc(NC(=O)c2ccc(-c3nc4cc(S(=O)(=O)C(F)(F)F)ccc4n3CC)cc2)c1 [Example 39, 3-[4-(1-Ethyl-5-trifluoromethanesulfonyl-1H-benzoimidazol-2-yl)-benzoylamino]-benzoic acid ethyl ester] |  |  | 
9 | > 100 | > 100 | > 20 | CCn1c(-c2ccc(C(=O)NCCN3CCCC3)cc2)nc2cc(S(=O)(=O)C(F)(F)F)ccc21 [Example 40, 4-(1-Ethyl-5-trifluoromethanesulfonyl-1H-benzoimidazol-2-yl)-N-(2-pyrrolidin-1-yl-ethyl)-benzamide] |  |  | 
10 | 19 | 13.5 | > 20 | CCNC(=O)c1ccc(-c2nc3cc(S(=O)(=O)C(F)(F)F)ccc3n2CC)cc1 [Example 41, N-Ethyl-4-(1-ethyl-5-trifluoromethanesulfonyl-1H-benzoimidazol-2-yl)-benzamide] |  |  | 
11 | > 100 | 98 | > 20 | CCn1c(C(=O)O)nc2cc(S(=O)(=O)C(F)(F)F)ccc21 [Example 42, 1-Ethyl-5-trifluoromethanesulfonyl-1H-benzoimidazole-2-carboxylic acid] |  |  | 
12 | 74.6 | 53.9 | > 20 | CCCCN(C(=O)c1ccccc1)C(C(=O)NCC(=O)OC)c1ccc(S(=O)(=O)C(F)(F)F)cc1 (stereo not drawn) [Example 43, [2-(Benzoyl-butyl-amino)-2-(4-trifluoromethanesulfonyl-phenyl)-acetylamino]-acetic acid methyl ester] |  |  | 
13 | 22.7 | 19 | 15.8 | CCCCNC(=O)C(c1ccc(S(=O)(=O)C(F)(F)F)cc1)N(Cc1ccccc1)C(=O)c1ccccc1 (stereo not drawn) [Example 44, N-Benzyl-N-[butylcarbamoyl-(4-trifluoromethanesulfonyl-phenyl)-methyl]-benzamide] |  |  | 
14 | 10.6 | 9.3 | 8.3 | Cc1cccc(C)c1NC(=O)C(c1ccc(S(=O)(=O)C(F)(F)F)cc1)N(C(=O)c1ccccc1)C1CCCCC1 (stereo not drawn) [Example 49, N-Cyclohexyl-N-[(2,6-dimethyl-phenylcarbamoyl)-(4-trifluoromethanesulfonyl-phenyl)-methyl]-benzamide] |  |  | 
15 | 8 | 64.5 | > 20 | O=C(O)COc1ccc(S(=O)(=O)c2ccc(Oc3ccc(S(=O)(=O)C(F)(F)F)cc3[N+](=O)[O-])cc2)cc1 [Example 52, {4-[4-(2-Nitro-4-trifluoromethanesulfonyl-phenoxy)-benzenesulfonyl]-phenoxy}-acetic acid] |  |  | 
16 | 1.5 | 22.2 | 1.5 | O=C(O)c1ccc(OCCOc2ccc(S(=O)(=O)C(F)(F)F)cc2[N+](=O)[O-])cc1 [Example 53, 4-[2-(2-Nitro-4-trifluoromethanesulfonyl-phenoxy)-ethoxy]-benzoic acid] |  |  | 
17 | 4.4 | 29.1 | 9.4 | O=[N+]([O-])c1ccccc1NCC(O)COc1ccc(S(=O)(=O)C(F)(F)F)cc1[N+](=O)[O-] (stereo not drawn) [Example 58, 1-(2-Nitro-phenylamino)-3-(2-nitro-4-trifluoromethanesulfonyl-phenoxy)-propan-2-ol] |  |  | 
18 | 4.8 | 50.9 | 16.2 | O=[N+]([O-])c1ccc(NCC(O)COc2ccc(S(=O)(=O)C(F)(F)F)cc2[N+](=O)[O-])cc1 (stereo not drawn) [Example 60, 1-(4-Nitro-phenylamino)-3-(2-nitro-4-trifluoromethanesulfonyl-phenoxy)-propan-2-ol] |  |  | 
